“And” between values parts separate entries of the source, which are not always exact repeats. Equal values may be shown once. Where only a bound is given, the exact number is not on record here.

The text below walks through data of patent US7947647B2, “Synthetic mimics of mammalian cell surface receptors: method and compositions” (The Penn State Research Foundation, priority 2004, dated 2011).

In data set [1] the test system is Jurkat lymphocytes. Briefly: Uptake of AcGFP-oligohistidine fusion proteins (flow cytometry). The data set is classed as cell-based, human. Conditions: receptor 10 μM preloaded 1 h, protein 3.2 μM, Ni(OAc)2 100 μM. How it is done:
FIG. 25. Analysis of cellular uptake of His-tagged AcGFP proteins by flow cytometry. Each bar represents the average fluorescence of 10,000 cells. Unless otherwise noted, cellular plasma membranes of Jurkat lymphocytes were preloaded with receptor 1 (10 μM) for 1 h at 37° C., cells were washed with fresh media, and His-tagged AcGFP (3.2 μM)/metal diacetate solution (100 μM) was added for 4 h at 37° C. Prior to analysis, cells were washed with NTA (400 μM, 30 min) in PBS (pH 7.4) to remove bound surface protein. Panel A: Dose dependence of receptor-mediated uptake. Premix conditions: a solution containing receptor 1, Ni(OAc)2, and AcGFP(His)10 was added to cells for 4 h. Panel B: Dependence on [Ni(OAc)2]. Panel C: Omission control experiments. Panel D; Uptake of (His)6 and (His)10 fusion proteins promoted by different metal diacetates.
Preload conditions: To Jurkat lymphocytes (7×10^5) in RPMI media (0.5 mL) was added synthetic receptor 1 (typical final [Receptor 1]=10 μM) in DMSO (final [DMSO]=1%). These cells were incubated at 37° C. for 1 h to load the receptor into cellular plasma membranes. The cells were washed with RPMI media (0.5 mL) to remove unincorporated receptor/DMSO and resuspended in fresh media (87.6 μL). […]
A general note: In flow cytometry, cells or beads pass a laser one at a time.

The subject of data set [2] is Jurkat lymphocytes. The format is cell-based. The protocol:
Analysis of cytotoxicity of protein delivery.
To examine the toxicity of this metal acetate and protein delivery, cellular viability was examined by flow cytometry. In these experiments, Jurkat lymphocytes were treated with receptor 1 (10 μM, 1 h), followed by AcGFP(His)10 (3.2 μM), and Ni(OAc)2 (100 μM, 4 h) to enhance protein uptake by 600-fold. Cells were washed with disodium NTA to remove cell surface protein and were cultured for an additional 48 h. Cellular viability was determined by light scattering and staining the nuclei of membrane-compromised dead cells with the fluorophore propidium iodide. Under these conditions, 97% of the cells were viable, compared with 98.6% of untreated controls, and no effects on cellular morphology were observed. Other studies have similarly reported low toxicity of nickel salts at <160 μM in cell culture.^14 By enabling common oligohistidine affinity tags to function as cell penetrating peptides, synthetic receptor 1 provides a potentially versatile new probe of cellular biology.

Data set [3] has as its system mouse J-774 cells and human HeLa cells. In words: Flow cytometric analysis of cellular uptake of fluorescent vancomycin 2. The data set is classed as cell-based. How it is done:
FIG. 18. Flow cytometric analysis of cellular uptake of fluorescent vancomycin 2 promoted by synthetic receptor 3 and control compounds. Preload conditions: Receptor 3 or analogues (4, 5) were added to cells for 1 h to load the plasma membrane, cells were washed, and 2 (3 μM) was added for 4 h. Premix conditions: Receptor 3 or analogues (4, 5) were preequilibrated with 2 (3 μM) at 23° C. for 1 h followed by addition of this mixture to cells for 4 h.
The dose-dependent effectiveness of delivery of 2 into mouse J-774 cells and human HeLa cells mediated by […] was examined quantitatively by flow cytometry.

Take `CC(C)CCC[C@@H](C)[C@H]1CC[C@H]2[C@@H]3CC=C4C[C@@H](NCCCCC(=O)NCCC(=O)NCCC(=O)NCCCCC(C(=O)O)N(CC(=O)O)CC(=O)O)CC[C@]4(C)[C@H]3CC[C@]12C` (stereo partly drawn) [receptor 1, 4-Carboxy-3-(carboxymethyl)-22-[(3β)-cholest-5-en-3-ylamino]-10,14,18-trioxo-3,9,13,17-tetraazadocosan-1-oic acid]: the “intracellular delivery of AcGFP(His)10 above basal levels of endocytosis” value with Jurkat lymphocytes [1] was > 600 fold and 600 fold. Besides, the “effects on viability or cellular morphology” value in the data set on Jurkat lymphocytes [2] is “No significant effects on viability or cellular morphology were observed”. In the data set on Jurkat lymphocytes [2] (human, 10 μM), the cells viable is 97%.
Take AcNH-D-Phe-D-Ala-CO2H: in data set [3], the “effect of soluble competitor on receptor-mediated ligand uptake” value was “blocked”.
